Reference: patent US6667157B1, “Compositions and methods for the abrogation of cellular proliferation utilizing the human immunodeficiency virus VPR protein” (priority 1994, dated 2003)

What was measured:
rip-1 = rip-1 cytoplasmic to nuclear translocation (cellular fractionation, vpr-ligand blot); format: cell-based; details: for nuclear translocation of rip-1: exposure of cells to agent, steroids at 10^−6M
Protocol: 3×10^6 cells were washed twice in PBS, and lysed in 200 μl of lysis buffer (150 mM NaCl, 50 mM Tris, pH 8.0, 0.5% Triton X-100, plus protease inhibitors: aprotinin, leupeptin, pepstatin A, each at 2 μg/ml; PMSF, 1 mM, and EDTA, 1 mM). Cell suspension was incubated on ice for 10 minutes with frequent vortexing, and centrifuged at 12000 g for 6 minutes. The soluble, as well as the insoluble fractions were run on 12% SDS-PAGE, and transferred to PVDF membranes (Millipore), as described. Membranes were blocked with 5% non fat dry milk, in TBS supplemented with 0.05% Tween-20. Blocked membranes were incubated with either purified vpr protein (approximately 50 ng/ml) or an irrelevant protein. These membranes were then incubated with 808 rabbit anti vpr antiserum Levy, et al. 1994b, supra, followed by I^125 protein G (NEN), and exposed to film for at least 12 hours at −80° C.

HIV-1 NL43 Δvpr = experiment: Complementation in trans of HIV-1 NL43 Δvpr in nonproductively infected U937 cells (virus production); format: cell-based; details: for complementation in trans of HIV-1 NL43 Δvpr virus: agent added to tissue culture medium of nonproductively infected U937 cells
Protocol: (§1) The following cell lines were obtained from the American Type Culture Collection; TE671 human embryonal rhabdomyosarcoma (ATCC HTB139), A673 embryonal rhabdomyosarcoma (ATCC CRL 1598), D17 canine osteosarcoma (ATCC CCL183), HOS human osteosarcoma (ATCC CRL 1543), U373 human glioblastoma (ATCC HTB17), SK-N-MC neuroblastoma (ATCC HTB10). Two additional glioblastoma lines were kindly provided by the Medical Research Council (MRC), England, (HT17 and HT16). U87MG (HTB14) is a glial cell line obtained from the University of Pennsylvania Cell Center. RD rhabdomyosarcoma cells were provided by Dr. A. Srinivasan. The T lymphocytic cells H9 and SupT-I were obtained from the University of Pennsylvania Cell Center, and KG-1 was obtained from Dr. G. Trinchieri. The murine NIH 3T3 line was obtained from ATCC. BSC-1, CV-1 and COS cell lines were obtained Dr. B. Moss. Primary PBL as well as primary monocytes/macrophages were isolated as in Levy, et al. 1994b, supra. All non-hematopoietic cells were cultured in DMEM with 10% heat inactivated fetal calf serum, penicillin/streptomycin, I-glutamine, Hepes (25 mM) and sodium pyruvate. Hematopoietic cells were cultured in RPMl 1640 as above except using 10% autologous human serum. Virus were prepared as described in Levy, et al., 1994b, supra; Levy, et al., 1994a, supra, which are incorporated herein by reference.
The rabbit anti-vpr peptide serum (aa 2-21, “808”) was obtained from Bryan Cullen through the NIH ARRRP. The human anti-gag p24 (V7.8) was obtained from Ronald Kennedy through the NIH ARRRP. The sheep anti-p24 was obtained from the FDA through the NIH ARRRP. […]
Such nonproductively infected cells can be rescued for p24 production by addition of exogenous vpr protein (Levy, et al., 1994a, supra; Levy, et al., 1994b, supra). […] When the nonproductively infected U937 cells described above were exposed to vpr protein, rip-1 translocated 12 hours later, and virus was first detected in the media 36 hours after the initial exposure to vpr. […]

HIV-1 NL43 = experiment: Virus production by HIV-1 NL43 infected U937 cells; format: cell-based
Protocol: as §1, with “reference. […]” for “reference.”

HIV LTR = experiment: LTR-CAT assay in RD cells transfected with pBennCAT; format: cell-based, HIV-1; details: for increase in CAT activity over the controls: agent added to medium of LTR-CAT transfected RD cells, harvested 48 hours later
Protocol: Induction of the HIV-LTR was measured as a function of a reporter gene (CAT) function. pBennCAT, an LTR-CAT encoding construct, obtained from M. Martin, through the NIH ARRRP was used. The levels of CAT protein were measured using a CAT ELISA capture assay (Boehringer Mannheim), following manufacturer's specifications. The levels of CAT activity were measured by a chloramphenicol acetyltransferase assay, according to published procedures (Gorman, et al., 1982, The Rous sarcoma virus long terminal repeat is a strong promoter when introduced into a variety of eukaryotic cells by DNA mediated transfection. Proc. Natl. Acad. Sci. USA. 79, 6777-6781). Briefly, RD cells were transfected with pBennCAT (Gendelman, 1986, Trans-activation of the Human immunodeficiency virus long terminal repeat sequence by DNA viruses. Proc. Natl. Acad. Sci. USA. 83, 9759-9763), using DOTAP. Cells were washed 12 hours later and new medium, containing the test reagents was added to the cell monolayers. 48 hours later, cells were washed three times with Ca+2/Mg+2 free PBS. Cells were then scraped off the plate, and collected with 1 ml PBS. Cell pellets were lysed by resuspending them in 100 μl 0.25M Tris, pH 7.8, and undergoing three freeze-thaw cycles using an ethanol-dry ice bath, and a 37° C. water bath. Lysates were spun at 12,000 G for 5 minutes and samples were stored at −20° C. until they were used. The CAT reaction was set up using 5 μl C^14 chloramphenicol (40-50 mCi/mmole), 70 μl ddH2O, 35 μl 1M Tris, pH 7.8, 20 μl 4 mM acetyl Coa (Pharmacia), 20 μl cell lysate. The reactions were incubated at 37° C. for an hour, and subsequently extracted with 1 ml ethyl acetate. After resuspension in 20 μl ethyl acetate, samples were spotted on the silica gel TLC plates (Whatman), and developed in chloroform:methanol (95:5); ascending. Gels were dried and exposed to film (Kodak XAR) overnight at room temperature. The panel of HIV-1 LTR/CAT mutants were obtained from Dr. Joseph Stevens, through the NIH ARRRP. pGRE5/CAT was obtained from United States Biochemicals.
The possibility that activation of the GR pathway could play a central role in the viral transcription process was considered. To test this, RD cells were transfected with an LTR-CAT encoding plasmid (pBennCAT) (Gendelman, 1986, supra), without selection. 12 hours later, the cell monolayers were washed and fresh medium containing the test reagents was added to the cultures, and 48 hours later the cells were harvested. In these studies, the co-transfection of a vpr encoding plasmid with the LTR-CAT encoding plasmid produced an increase in CAT activity of 5-10 fold over the controls, as has been previously reported. […] Vpr protein was detected in the tissue culture media of these cells, as assessed by capture ELISA.

Row | Compound | nuclear translocation of rip-1 (rip-1) | complementation in trans of HIV-1 NL43 Δvpr virus (HIV-1 NL43 Δvpr) | increase in CAT activity over the controls (HIV LTR) | further results
1 | CC#C[C@]1(O)CC[C@H]2[C@@H]3CCC4=CC(=O)CCC4=C3[C@@H](c3ccc(N(C)C)cc3)C[C@@]21C [mifepristone] | – | – | – | effect on vpr induced translocation of rip-1 (rip-1; mifepristone 10^−6M): inhibited; effect on rip-1 nuclear translocation induced by Dexamethasone and Hydrocortisone (rip-1; mifepristone added to culture medium, 10^−6M): blocked; effect on transcomplementation of HIV-1 NL43 Δvpr infected U937 cells by vpr protein (HIV-1 NL43 Δvpr; mifepristone treatment): abolished; levels of virus produced, lower than the untreated cultures (HIV-1 NL43; HIV-1 infected cells exposed to mifepristone, 10^−6M): about 70%; inhibition of the enhancement in virus production by addition of vpr protein (HIV-1 NL43; infected cells plus vpr protein, mifepristone 10^−6M): 80-90 % inhibition; effect on increase in CAT activity stimulated by vpr protein or steroids (HIV LTR; cultures supplemented with mifepristone): inhibited; effect on increase in CAT activity in cells cotransfected with vpr encoding plasmid and LTR-CAT plasmid (HIV LTR; mifepristone): blocked
2 | cyclodextrin | failed to induce the nuclear translocation of rip-1 | not affected | – | –
3 | C[C@]12CCC(=O)C=C1CC[C@@H]1[C@@H]2[C@@H](O)C[C@@]2(C)[C@H]1CC[C@]2(O)C(=O)CO [Hydrocortisone] | induced the nuclear translocation of rip-1 | complemented in trans | ca. 50 fold | –
4 | C[C@@H]1C[C@H]2[C@@H]3CCC4=CC(=O)C=C[C@]4(C)[C@@]3(F)[C@@H](O)C[C@]2(C)[C@@]1(O)C(=O)CO [Dexamethasone] | – | – | ca. 50 fold | –
5 | CCCCCCCCCCCCCC(=O)O[C@@H]1[C@@H](C)[C@@]2(O)[C@@H](C=C(CO)C[C@]3(O)C(=O)C(C)=C[C@@H]23)[C@@H]2C(C)(C)[C@]12OC(C)=O [PMA] | not | – | – | –
